Measured values taken from ChEMBL document CHEMBL5370591, “A Potent and Narrow-Spectrum Antibacterial against Clostridioides difficile Infection” (J Med Chem, 2023).
In brackets after ≈: the same amount, converted by molar mass.

How the values were obtained:
THP-1 = assay: Cytotoxicity against human THP-1 cells assessed as increase in LDH release incubate for 24 hrs by trypan-blue staining based analysis; assay type: functional, cell-based; conditions: THP-1, 24 h
[1] = Selectivity ratio of IC50 for human THP-1 cells to MIC for Clostridium difficile ATCC 43255; assay type: toxicity
Clostridioides difficile = assay: Antibacterial activity against Clostridium difficile ATCC 43255 measured after 48 hrs by two fold serial dilution method; assay type: functional

Row | Compound | IC50 (THP-1) | selectivity ratio [1] | MIC (Clostridioides difficile)
1 | Oc1c(F)cc(-c2nc(-c3ccc(Oc4ccc(C(F)(F)F)cc4)cc3)no2)cc1F | 18 µg/mL (≈ 41.4 µM) | 4 | –
2 | Oc1ccc(-c2nc(-c3ccc(OC4CCCCC4Br)cc3)no2)cc1 (stereo not given) | 8.4 µg/mL (≈ 20.2 µM) | 4 | 2 µg/mL (≈ 4.82 µM)
3 | Cl.NCc1ccc(-c2nc(-c3ccc(Oc4ccc(C(F)(F)F)cc4)cc3)no2)cc1 | – | 1 | 4 µg/mL
4 | Oc1ccc(-c2nc(-c3ccc(Oc4ccc(C(F)(F)F)cc4)cc3)no2)cc1F | 5.2 µg/mL (≈ 12.5 µM) | 1 | 4 µg/mL (≈ 9.61 µM)
5 | Oc1ccc(-c2nc(-c3ccc(Oc4ccccc4)cc3)no2)cc1 | 17 µg/mL (≈ 51.5 µM) | 8 | 2 µg/mL (≈ 6.05 µM)
6 | Oc1ccc(-c2cc(-c3ccc(Oc4ccccc4)cc3)no2)cc1 | – | – | > 128 µg/mL
7 | O=[N+]([O-])c1ccc(-c2noc(-c3ccc4[nH]ccc4c3)n2)cc1 | – | – | > 128 µg/mL
8 | O=[N+]([O-])c1c[nH]nc1-c1nc(-c2ccc(Oc3ccc(C(F)(F)F)cc3)cc2)no1 | 21 µg/mL (≈ 50.3 µM) | 5 | 4 µg/mL (≈ 9.59 µM)
9 | Oc1ccc(-c2nc(N3CCN(c4ccccc4)CC3)no2)cc1 | – | – | > 128 µg/mL
10 | COc1ccc(-c2noc(-c3ccc(O)cc3)n2)cc1OC | – | – | > 128 µg/mL
11 | Oc1ccc(-c2nc(-c3ccc(Oc4ccc(I)cc4)cc3)no2)cc1 | – | – | 16 µg/mL (≈ 35.1 µM)
12 | CCC(C)Nc1c[nH]nc1-c1nc(-c2ccc(Oc3ccc(C(F)(F)F)cc3)cc2)no1 (stereo not given) | – | – | > 128 µg/mL
13 | Fc1ccc2oc3ccc(-c4noc(-c5ccc6[nH]ccc6c5)n4)cc3c2c1 | – | – | > 128 µg/mL
14 | FC(F)(F)c1ccc(Oc2ccc(-c3noc(-c4nc[nH]n4)n3)cc2)cc1 | – | – | > 128 µg/mL
15 | Oc1ccc(-c2noc(-c3ccc(O)cc3)n2)cc1 | – | – | 128 µg/mL (≈ 503 µM)
16 | Oc1ccc(-n2cc(-c3ccc(Oc4ccccc4)cc3)nn2)cc1 | – | – | > 128 µg/mL
17 | C[C@@H](NC(=O)OC(C)(C)C)c1nc(-c2ccc(OC3CCCC3)cc2)no1 | – | – | > 128 µg/mL
18 | O=[N+]([O-])c1cc(-c2nc(-c3ccc(Oc4ccc(C(F)(F)F)cc4)cc3)no2)cnc1O | 37 µg/mL (≈ 83.3 µM) | 19 | 2 µg/mL (≈ 4.5 µM)
19 | O=Cc1ccc(-c2noc(-c3ccc(O)cc3)n2)cc1 | – | – | > 128 µg/mL
20 | C#CCCOc1ccc(-c2noc(-c3ccc(O)cc3)n2)cc1 | – | – | > 128 µg/mL
21 | CCOc1ccc(-c2noc(-c3ccc(O)cc3)n2)cc1 | – | – | > 128 µg/mL
22 | O=[N+]([O-])c1c[nH]nc1-c1nc(-c2ccc3oc4ccccc4c3c2)no1 | – | 2 | 4 µg/mL (≈ 11.5 µM)

Row | Compound | IC50 (THP-1) | selectivity ratio [1] | MIC (Clostridioides difficile)
23 | CC(C)(C)Oc1ccc(-c2noc(-c3ccc(O)cc3)n2)cc1 | – | – | > 128 µg/mL
24 | C[C@@H](N)c1nc(-c2ccc(OC3CCCC3)cc2)no1 | – | – | > 128 µg/mL
25 | O=[N+]([O-])c1ccc(-c2nc(-c3ccc(Oc4ccc(C(F)(F)F)cc4)cc3)no2)cc1 | – | – | > 128 µg/mL
26 | Cl.O=[N+]([O-])c1c[nH]c(-c2nc(-c3ccc(CN4CCCC4)cc3)no2)n1 | – | – | > 128 µg/mL
27 | OCC#Cc1c[nH]nc1-c1nc(-c2ccc(Oc3ccc(C(F)(F)F)cc3)cc2)no1 | – | – | > 128 µg/mL
28 | C[C@@H](NC(=O)OC(C)(C)C)C(=O)N[C@H](C)c1nc(-c2ccc(OC3CCCC3)cc2)no1 | – | – | > 128 µg/mL
29 | FC(F)(F)c1ccc(Oc2ccc(-c3noc(-c4n[nH]cc4Nc4c[nH]c5ncccc45)n3)cc2)cc1 | – | – | > 128 µg/mL
30 | O=C(NNC(=O)c1ccc(OC2CCCC2)cc1)c1ccc(O)cc1 | – | – | > 128 µg/mL
31 | c1cc2cc(-c3nc(-c4ccc5occc5c4)no3)ccc2[nH]1 | – | – | > 128 µg/mL
32 | Oc1nc(-c2ccc(OC3CCCC3)cc2)no1 | – | – | 64 µg/mL (≈ 260 µM)
33 | O=[N+]([O-])c1c[nH]nc1-c1nc(-c2ccc(OC(F)(F)F)cc2)no1 | 25 µg/mL (≈ 73.3 µM) | 6 | 4 µg/mL (≈ 11.7 µM)
34 | Cl.NCc1ccc(-c2nc(-c3ccc(OC4CCCC4)cc3)no2)cc1 | – | – | 8 µg/mL
35 | Oc1ccc(-c2nc(-c3ccc(Oc4ccc(C(F)(F)F)cc4)cc3)no2)cn1 | – | – | > 128 µg/mL
36 | O=[N+]([O-])c1c[nH]nc1-c1nc(-c2ccc(Oc3ccccc3)cc2)no1 | – | – | > 128 µg/mL
37 | Oc1ccc(-c2nc(-c3ccc(Oc4ccc(C(F)(F)F)cc4)cc3)no2)cc1 | 17 µg/mL (≈ 42.7 µM) | 9 | 2 µg/mL (≈ 5.02 µM)
38 | Cl.Oc1ccc(-c2nc(-c3ccc(OC4CCNC4)cc3)no2)cc1 (stereo not given) | – | – | 64 µg/mL
39 | Oc1ccc(-c2nc(-c3ccc(OC4CCC4)cc3)no2)cc1 | – | – | > 128 µg/mL
40 | c1cc2cc(-c3nc(-c4ccc5c(c4)OCO5)no3)ccc2[nH]1 | – | – | > 128 µg/mL
41 | FC(F)(F)c1ccc(Oc2ccc(-c3noc(-c4n[nH]cc4Nc4cc5ccccc5[nH]4)n3)cc2)cc1 | – | – | > 128 µg/mL
42 | Oc1ccc(Oc2ccc(-c3noc(-c4ccc(O)cc4)n3)cc2)cc1 | – | – | 64 µg/mL (≈ 185 µM)
43 | Oc1ccc(-c2nc(-c3ccc(OC4CCNCC4)cc3)no2)cc1 | – | – | 64 µg/mL (≈ 190 µM)
